This is an account of results in patent US20250170130A1, “MODULATORS OF MYC FAMILY PROTO-ONCOGENE PROTEIN” (Nalo Therapeutics, priority 2022, published 2025).

One assay concerns the target T1, MycC (Homo sapiens, UniProt P01106).
T1 construct: endogenous in cells; host or cells: L363
In words: Degradation of MycC protein in L363 cells, JESS/Western blot of lysates. It counts as cell-based. Particulars: L-363, 24 h, L-363 cells, 24 h; for Dmax at 0.5 µM: read-out: % Degradation of MycC (L-363) 24 h, 0.5 μM; for Dmax at 1 µM: read-out: % Degradation of MycC (L-363) 24 h, 1 μM; for Dmax at 3 µM: read-out: % Degradation of MycC (L-363) 24 h, 3 μM; for Dmax at 6 µM: read-out: % Degradation of MycC (L-363) 24 h, 6 μM. In short, it runs like this:
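L363 suspension cells were seeded at 1E6 cells per well and exposed to compound (stock 10 mM in DMSO) for 24 hrs. Cells were collected, spun down, rinsed with PBS, lysed in RIPA buffer cocktail on ice, clarified and kept at −80 degrees. Lysate protein was quantified by BCA, and c-myc was measured on JESS by chemiluminescence with tubulin and GAPDH loading controls in the NIR channel.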
(In general: Immunoblotting shows a protein as a band on a membrane.)

The target of another assay is T2, MycN (Homo sapiens, UniProt P04198).
T2 construct: endogenous in cells; host or cells: SK-N-BE(2)
T2 sequence (P04198 1-464): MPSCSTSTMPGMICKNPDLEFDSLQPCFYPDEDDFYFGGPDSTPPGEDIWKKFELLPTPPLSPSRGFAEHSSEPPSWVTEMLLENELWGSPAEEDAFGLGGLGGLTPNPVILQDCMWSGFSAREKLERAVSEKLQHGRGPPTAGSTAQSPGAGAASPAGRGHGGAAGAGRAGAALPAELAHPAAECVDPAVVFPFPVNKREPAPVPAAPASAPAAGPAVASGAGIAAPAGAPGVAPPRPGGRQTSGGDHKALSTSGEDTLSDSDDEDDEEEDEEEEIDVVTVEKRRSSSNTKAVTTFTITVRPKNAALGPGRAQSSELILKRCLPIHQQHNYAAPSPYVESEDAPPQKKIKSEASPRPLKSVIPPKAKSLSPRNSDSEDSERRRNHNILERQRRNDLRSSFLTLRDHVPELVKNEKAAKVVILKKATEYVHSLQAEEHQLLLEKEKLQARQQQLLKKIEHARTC
The assay can be described thus: Degradation of MycN protein in SK-N-BE(2) cells, JESS/Western blot of lysates. The following applies: SKNBE2, 24 h, SKNBE2 cells, 24 h; for Dmax at 3 µM: read-out: % Degradation of MycN (SKNBE2) 24 h, 3 μM; for Dmax at 0.5 µM: read-out: % Degradation of MycN (SKNBE2) 24 h, 0.5 μM; for Dmax at 6 µM: read-out: % Degradation of MycN (SKNBE2) 24 h, 6 μM; for Dmax at 1 µM: read-out: % Degradation of MycN (SKNBE2) 24 h, 1 μM. Format: cell-based. In short, it runs like this:
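SK-N-BE(2) adherent cells (5E5 per well of a 6 well dish) were grown 24 hrs, then exposed to compounds diluted 1 in 20 in media, with DMSO controls, for 24 hrs. Cells were scraped, pelleted, PBS washed and lysed in RIPA buffer cocktail; after BCA protein quantitation, n-myc was detected by chemiluminescence on JESS/Western blot with tubulin and GAPDH loading controls read in the near infra red channel.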

T1 sequence (P01106 whole entry): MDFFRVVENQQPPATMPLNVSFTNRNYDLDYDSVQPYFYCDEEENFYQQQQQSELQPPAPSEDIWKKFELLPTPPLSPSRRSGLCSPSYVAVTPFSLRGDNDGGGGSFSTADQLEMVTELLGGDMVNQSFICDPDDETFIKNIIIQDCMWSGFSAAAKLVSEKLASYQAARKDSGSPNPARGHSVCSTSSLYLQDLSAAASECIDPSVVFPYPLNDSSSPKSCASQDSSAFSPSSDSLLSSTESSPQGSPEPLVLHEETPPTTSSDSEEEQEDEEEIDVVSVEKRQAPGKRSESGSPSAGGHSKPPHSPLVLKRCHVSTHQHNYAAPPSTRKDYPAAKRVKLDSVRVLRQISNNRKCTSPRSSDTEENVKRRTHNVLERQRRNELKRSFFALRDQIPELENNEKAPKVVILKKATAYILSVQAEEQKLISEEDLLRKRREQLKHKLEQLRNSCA

For `CN[C@H]1CCN(c2nccc(Nc3cc(C4CC4)[nH]n3)n2)C1` [Compound 8, (S)—N-(5-cyclopropyl-1H-pyrazol-3-yl)-2-(3-(methylamino)pyrrolidin-1-yl)pyrimidin-4-amine], on MycC, the Dmax at 0.5 µM is under 20%, the Dmax at 1 µM is under 20% and the Dmax at 3 µM lay in the range of 20 to 49%. Besides, at MycN, the Dmax at 3 µM is under 20%.
For the molecule `c1cc(Nc2cc(C3CC3)[nH]n2)nc(N2CC(C3CNC3)C2)n1` [Compound 64, 2-[3-(Azetidin-3-yl)azetidin-1-yl]-N-(5-cyclopropyl-1H-pyrazol-3-yl)pyrimidin-4-amine], on MycC, the Dmax at 1 µM is under 20%, the Dmax at 3 µM was in the range of 20 to 49% and the Dmax at 6 µM is 20 to 49%. Further, at MycN, the Dmax at 0.5 µM is under 20%, the Dmax at 3 µM is under 20% and the Dmax at 6 µM is 20 to 49%.
For the molecule `NC[C@H]1CCCN(c2nccc(Nc3cc(C4CCCC4)[nH]n3)n2)C1` [Compound 108, 2-[(3R)-3-(Aminomethyl)-1-piperidyl]-N-(5-cyclopentyl-1H-pyrazol-3-yl)pyrimidin-4-amine], at MycC, the Dmax at 3 µM was 80 to 100% and the Dmax at 6 µM was 80 to 100%. Moreover, at MycN, the Dmax at 0.5 µM is under 20%, the Dmax at 1 µM lay in the range of 50 to 79%, the Dmax at 3 µM fell in the range of 50 to 79% and the Dmax at 6 µM fell in the range of 80 to 100%.
`c1cc(Nc2cc(C3CC3)[nH]n2)nc(N2CC3(CNC3)C2)n1` [Compound 6, N-(5-Cyclopropyl-1H-pyrazol-3-yl)-2-(2,6-diazaspiro[3.3]heptan-2-yl)pyrimidin-4-amine]: at MycC, the Dmax at 0.5 µM is under 20%, the Dmax at 1 µM is 20 to 49%, the Dmax at 3 µM is under 20% and the Dmax at 6 µM fell in the range of 20 to 49%. Also, at MycN, the Dmax at 0.5 µM is under 20%, the Dmax at 1 µM was under 20%, the Dmax at 3 µM was under 20% and the Dmax at 6 µM was under 20%.
As to `CNCCCN(C)c1nccc(Nc2cc(C3CC3)[nH]n2)n1` [Compound 101, N^4-(5-Cyclopropyl-1H-pyrazol-3-yl)-N^2-methyl-N^2-[3-(methylamino)propyl]pyrimidine-2,4-diamine], on MycC, the Dmax at 0.5 µM was 20 to 49%, the Dmax at 1 µM was in the range of 20 to 49%, the Dmax at 3 µM was in the range of 20 to 49% and the Dmax at 6 µM fell in the range of 20 to 49%. In addition, on MycN, the Dmax at 0.5 µM was under 20%, the Dmax at 1 µM was under 20%, the Dmax at 3 µM was under 20% and the Dmax at 6 µM lay within 20 to 49%.
On to `CN[C@@H]1CCN(c2nccc(Nc3cc(C4CC4)[nH]n3)n2)C1` [Compound 19, N-(5-Cyclopropyl-1H-pyrazol-3-yl)-2-[(3R)-3-(methylamino)pyrrolidin-1-yl]pyrimidin-4-amine], for which, at MycC, the Dmax at 0.5 µM is under 20%. Also, on MycN, the Dmax at 3 µM was in the range of 20 to 49% and the Dmax at 6 µM lay within 20 to 49%.
`CN1CC2(CCN(c3nccc(Nc4cc(C5CCCC5)[nH]n4)n3)C2)C1` [Compound 85, N-(5-cyclopentyl-1H-pyrazol-3-yl)-2-(2-methyl-2,6-diazaspiro[3.4]octan-6-yl)pyrimidin-4-amine]: on MycC, the Dmax at 0.5 µM is under 20% and the Dmax at 6 µM was under 20%. Besides, at MycN, the Dmax at 0.5 µM was under 20%, the Dmax at 1 µM was under 20%, the Dmax at 3 µM is 20 to 49% and the Dmax at 6 µM is 50 to 79%.
With `CN(C)[C@@H]1CCN(c2nccc(Nc3cc(C4CC4)[nH]n3)n2)C1` [Compound 17, N-(5-cyclopropyl-1H-pyrazol-3-yl)-2-[(3R)-3-(dimethylamino)pyrrolidin-1-yl]pyrimidin-4-amine], on MycC, the Dmax at 3 µM is under 20% and the Dmax at 6 µM was in the range of 80 to 100%. On MycN, the Dmax at 0.5 µM was in the range of 20 to 49%, the Dmax at 1 µM fell in the range of 20 to 49%, the Dmax at 3 µM lay within 50 to 79% and the Dmax at 6 µM lay in the range of 80 to 100%.
Turning to `CNC[C@H]1CCN(c2nccc(Nc3cc(C4CCCC4)[nH]n3)n2)C1` [Compound 35, N-(5-cyclopentyl-1H-pyrazol-3-yl)-2-[(3R)-3-(methylaminomethyl)pyrrolidin-1-yl]pyrimidin-4-amine], at MycC, the Dmax at 1 µM is under 20%, the Dmax at 3 µM fell in the range of 50 to 79% and the Dmax at 6 µM fell in the range of 80 to 100%. Besides, on MycN, the Dmax at 0.5 µM is 20 to 49%, the Dmax at 1 µM fell in the range of 50 to 79%, the Dmax at 3 µM fell in the range of 80 to 100% and the Dmax at 6 µM lay in the range of 80 to 100%.
Take `NC[C@H]1CN(c2nccc(Nc3cc(C4CCCC4)[nH]n3)n2)C[C@H]1F` [Compound 123-2, 2-[(3S,4S)-3-(Aminomethyl)-4-fluoro-pyrrolidin-1-yl]-N-(5-cyclopentyl-1H-pyrazol-3-yl)pyrimidin-4-amine]: on MycC, the Dmax at 0.5 µM fell in the range of 20 to 49%, the Dmax at 1 µM lay in the range of 50 to 79%, the Dmax at 3 µM was 80 to 100% and the Dmax at 6 µM is 80 to 100%. For the same molecule, at MycN, the Dmax at 0.5 µM fell in the range of 20 to 49%, the Dmax at 1 µM lay within 20 to 49%, the Dmax at 3 µM lay within 50 to 79% and the Dmax at 6 µM fell in the range of 80 to 100%.
With `c1cc(Nc2cc(C3CC3)[nH]n2)nc(N2CCC3(CCNC3)C2)n1` (stereo not drawn) [Compound 42, N-(5-Cyclopropyl-1H-pyrazol-3-yl)-2-(2,7-diazaspiro[4.4]nonan-2-yl)pyrimidin-4-amine], at MycC, the Dmax at 0.5 µM is under 20%, the Dmax at 1 µM is under 20% and the Dmax at 6 µM was in the range of 80 to 100%. For the same molecule, on MycN, the Dmax at 0.5 µM was 20 to 49%, the Dmax at 1 µM was 50 to 79%, the Dmax at 3 µM fell in the range of 50 to 79% and the Dmax at 6 µM was in the range of 80 to 100%.
